Read-outs that look alike come from different tables or passages of the source.
Tests used:
[1] = tested on: prostate epithelial cells; assay: Phase 2 trial, nuclear morphology of prostate epithelial cells; format: in vivo, human; conditions: genistein treated men vs controls
Source text: Though morphologically “normal,” these cells are present within organs with PCa, have pre-cancer molecular changes, and represent an appropriate target cell type for therapy that inhibits a process associated with PCa progression, in this case, development of the metastatic phenotype. […] These findings are consistent with its effects in vitro and in mice.

[2] = Phase 2 trial, serious adverse events; format: in vivo, human; conditions: grade >/= 2 clinical toxicity, NCI Common Toxicity Criteria v 2.0; 12 subjects
[3] = cited from earlier work
MEK4 [4] = assay: Phosphorylation of MEK4 in vivo (TGFβ stimulated); format: cell-based
Protocol: Phosphorylation by MEK4 (FIG. 4A) and phosphorylation of MEK4 (FIG. 7) was assayed. The Upstate Biotechnology MEK4 assay system was used to measure inhibition of MEK4 activity. Phosphorylation of MEK4 in vivo was assayed using standard techniques.

MMP-2 = assay: Phase 2 trial, MMP-2 transcript by qRT/PCR in LCM normal prostate epithelial cells; format: in vivo, human; conditions: 2 mg genistein/kg/day
Protocol: Of 38 subjects completing the study, MMP-2 expression was analyzed in tissue from 12 genistein-treated subjects and 12 controls. […] MMP-2 expression was measured by removing normal prostate epithelial cells from intact fresh frozen prostate tissue by laser capture microdissection (LCM), isolating RNA, treating with DNase, assessing RNA quality by capillary electrophoresis, and measuring MMP-2 transcript levels by qRT/PCR (normalizing to GAPDH), using exon spanning primers.

MEK4 [5] = biological target: T1, MEK4 (Homo sapiens, UniProt P45985); assay: Upstate Biotechnology MEK4 assay system, inhibition of MEK4 kinase activity; format: biochemical; conditions: in vitro
T1 construct: purchased Upstate Biotechnology
T1 sequence (P45985 1-399): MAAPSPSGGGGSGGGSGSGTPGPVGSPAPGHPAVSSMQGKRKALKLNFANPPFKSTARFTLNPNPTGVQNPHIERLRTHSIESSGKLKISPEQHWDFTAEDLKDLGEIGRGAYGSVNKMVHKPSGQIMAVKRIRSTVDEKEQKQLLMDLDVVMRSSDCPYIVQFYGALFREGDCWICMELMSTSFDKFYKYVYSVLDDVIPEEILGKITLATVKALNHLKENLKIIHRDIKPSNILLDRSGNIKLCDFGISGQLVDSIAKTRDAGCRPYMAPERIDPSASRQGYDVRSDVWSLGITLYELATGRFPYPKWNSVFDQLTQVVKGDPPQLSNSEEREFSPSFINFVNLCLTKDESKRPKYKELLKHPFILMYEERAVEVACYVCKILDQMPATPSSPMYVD

human PC3-M PCa cells = assay: Orthotopic PC3-M implantation metastasis model in athymic mice
[6] = tested on: ER promoter-luciferase reporter vector construct; assay: ER promoter-luciferase reporter assay in MCF-7 cells; format: cell-based, human; conditions: 10 μM
Protocol: The genes were: TFF1 (trefoil factor 1; also known as pS2), PGR (progesterone receptor), and CPSD (cathepsin D). Gene expression was measured by isolating RNA, and performing real time quantitative reverse transcription/polymerase chain reaction (qRT/PCR), using exon spanning primers (purchased from Applied Biosystems). The expression of GAPDH was also measured, and used to normalize the expression of ER responsive genes. Data below are the mean±SD of a single experiment, performed in duplicate. […] Additionally, the ability of compound 46 to activate an ER promoter-luciferase reporter vector construct after transient transfection of the human ER positive breast cancer cell line, MCF-7, was evaluated (FIG. 31). […] “No associated control cells” were transfected with an identical vector construct that lacked the estrogen response element, i.e., noERE.

[7] = tested on: PCa cell lines (PC3, PC3-M, 1532CPTX, 1542CPTX, 1532NPTX, 1542NPTX); assay: Cell invasion assay of PCa cell lines (Examples 2 and 3); format: cell-based, human
Source text: MEK expression was examined in six human prostate cancer (PCa) cell lines: PC3 and PC3-M metastatic PCa cells, 1532CPTX and 1542 CPTX immortalized localized PCa cells, and 1532 NPTX and 1542 NPTX immortalized normal epithelial cells. The last four cell lines are primary cells, are HPV transformed, and thus represent early stages of prostate carcinogenesis. They provide representative members of the metastatic phenotype, as well as members of early state phenotypes. […] All six cell lines also secrete as well as respond to TGFβ, a regulator of cell motility that plays a role in PCa cell invasiveness.
Assays were conducted using methods as described in Craft et al. (2008, Mol. Pharmocol., 73(1):235-242; herein incorporated by reference in its entirety).

[8] = 0, 100, 250 mg genistein/kg chow
[9] = Western blot, primary tumor tissue

O=c1c(-c2ccc(O)cc2)coc2cc(O)cc(O)c12 [genistein]
increase in nuclear length [1]: 1.5±0.7%
increase in nuclear width [1]: 2.7±0.7%
increase in nuclear area ([1]; only a trend): 2.0±1.0%
serious adverse events, number [2]: 0
tolerability ([3]; 2 to 8 mg genistein/kg, men with prostate cancer): well tolerated
peak concentration of free genistein ([3]; 2 to 8 mg genistein/kg): 66 to 170 nM
peak concentration of total genistein ([3]; 2 to 8 mg genistein/kg): 4.3 to 16.3 µM
clearance ([3]; dependence on body mass): not altered by body mass
blood genistein conjugated ([3]; in vivo): > 90%
halflife ([3]; in vivo): 15 to 22 h
TGFβ increased MEK4 phosphorylation (MEK4 [4]): does not block such phosphorylation
MMP-2 transcript level, % of controls (mean±SEM) (MMP-2): 24±4.1%
phosphorylation of JNK3 by MEK4 (MEK4 [5]): inhibits phosphorylation of JNK3 by MEK4
blood concentration of total genistein (100 mg genistein/kg chow cohort): 290 ± 72 nM
blood concentration of total genistein (250 mg genistein/kg chow cohort): 1307 ± 507 nM
metastasis (human PC3-M PCa cells; [8]): decreased metastasis
tumor volume (human PC3-M PCa cells; [8]): not tumor volume
level of total p38 MAP kinase protein (human PC3-M PCa cells; [9]): increased the level of total p38 MAP kinase protein
p38 MAP kinase phosphorylation (human PC3-M PCa cells; [9]): decreased its phosphorylation
weight of mice (human PC3-M PCa cells; between cohorts): no difference
luciferase activity [6]: induced luciferase activity
cell invasion ([7]; early and late stage PCa cells): inhibits invasion of both early and late stage PCa cells
effect of genistein on invasiveness when MEK4 expression suppressed ([7]; in the presence of siMEK4): abrogated
